Data on one compound can be found in article PMC10877733, “Discovery and Characterization of VU0542270, the First Selective Inhibitor of Vascular Kir6.1/SUR2B KATP Channels” (Molecular Pharmacology, 2024).

Format in all cases: cell-based
For assay [1], the system named is channels containing SUR1. Nature of the assay: Thallium flux, Kir6.1 or Kir6.2 co-expressed with SUR1 in transfected HEK-293 cells. The settings on record: 3 µM, Fig. 4D. The text has this:
The pcDNA3.1-SUR2B plasmid was generously provided by Dr. Colin Nichols (Washington University). The pcDNA5/TO-Kir6.1 plasmid was synthesized by GenScript. Stably transfected tetracycline-regulated expression human embryonic kidney-293 (T-Rex-HEK293) cells expressing both plasmids were generated by cotransfecting cells with Lipofectamine LTX followed by antibiotic selection and clonal selection using the thallium flux assay described below. Monoclonal lines expressing robust pinacidil-activated thallium flux were selected for high KATP channel activity. T-Rex-HEK293 cells expressing Kir6.2/SUR1 were created as described previously ([Raphemot et al., 2014]). The cell culture media contained Dulbecco’s modified Eagle’s medium (Gibco, 11965-092) supplied with heat-inactivated FBS (bio-techne, Minneapolis, MN S11150H,10%), Blasticidine HCl (Gibco, A11139-03, 10 ug/mL), Penicillin-Streptomycin (Gibco, 15140-122, 2 mM), G418 Sulfate (CORNING, Corning, NY, 30-234-CR, 1 mg/mL), and Hygromycin B (Invitrogen, Carlsbad, CA, 10687-010, 250 ug/mL). […]
Quantitative thallium flux assays of Kir6.1/SUR2B activity were performed essentially as described previously for Kir6.2/SUR1 ([Raphemot et al., 2014]; [Kharade et al., 2019]). […] Dye-loaded cells were washed with assay buffer and transferred to a Panoptic Kinetic Imaging Plate Reader (Wavefront Bioscience, Franklin, TN). […]

The target of assay [2] is T1, Kir4.2 (Homo sapiens, UniProt Q99712).
T1 construct: expressed in transfected cells
T1 sequence (Q99712 1-375): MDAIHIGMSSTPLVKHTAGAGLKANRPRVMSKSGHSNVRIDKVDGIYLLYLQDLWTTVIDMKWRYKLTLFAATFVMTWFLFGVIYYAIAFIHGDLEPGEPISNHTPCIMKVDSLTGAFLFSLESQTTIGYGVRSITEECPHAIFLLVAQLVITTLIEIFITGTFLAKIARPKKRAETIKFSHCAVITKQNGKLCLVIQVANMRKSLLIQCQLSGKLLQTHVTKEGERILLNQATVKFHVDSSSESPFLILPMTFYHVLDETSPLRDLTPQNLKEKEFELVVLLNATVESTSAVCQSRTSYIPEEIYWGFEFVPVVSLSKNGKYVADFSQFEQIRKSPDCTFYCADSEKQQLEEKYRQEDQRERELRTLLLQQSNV
Nature of the assay: Thallium flux selectivity assay Kir4.2. Here is the method:
(§1) Quantitative thallium flux assays of Kir6.1/SUR2B activity were performed essentially as described previously for Kir6.2/SUR1 ([Raphemot et al., 2014]; [Kharade et al., 2019]). Stable T-Rex-HEK293-Kir6.1/SUR2B cells or transiently transfected HEK293T cells were plated in polyamine-coated, clear-bottomed, black-walled 384-well plates and were cultured (37°C/5% CO2) overnight in Dulbecco’s modified Eagle’s medium (Gibco, Carlsbad, CA, 11995-065) containing 10% FBS (2 mM Penicillin-Streptomycin). The following day, cells were washed with assay buffer (i.e., Hanks’ balanced salt solution/20 mM HEPES) and loaded for 1 hour with thallium sensor dye Brilliant Thallium (Ion Bioscience, San Marcos, TX) at room temperature. Dye-loaded cells were washed with assay buffer and transferred to a Panoptic Kinetic Imaging Plate Reader (Wavefront Bioscience, Franklin, TN). Control and test compound treatments were for 4 minutes prior to adding 0.5 mM chloride-free thallium stimulus buffer (Ion Bioscience) to initiate thallium flux. […] Selectivity assays against other Kir channels were performed essentially as described previously ([Kharade et al., 2018]; [McClenahan et al., 2022]).

Assay [3] concerns the target T2, Kir2.2 (Homo sapiens, UniProt Q14500).
T2 construct: expressed in transfected cells
T2 sequence (Q14500 1-433): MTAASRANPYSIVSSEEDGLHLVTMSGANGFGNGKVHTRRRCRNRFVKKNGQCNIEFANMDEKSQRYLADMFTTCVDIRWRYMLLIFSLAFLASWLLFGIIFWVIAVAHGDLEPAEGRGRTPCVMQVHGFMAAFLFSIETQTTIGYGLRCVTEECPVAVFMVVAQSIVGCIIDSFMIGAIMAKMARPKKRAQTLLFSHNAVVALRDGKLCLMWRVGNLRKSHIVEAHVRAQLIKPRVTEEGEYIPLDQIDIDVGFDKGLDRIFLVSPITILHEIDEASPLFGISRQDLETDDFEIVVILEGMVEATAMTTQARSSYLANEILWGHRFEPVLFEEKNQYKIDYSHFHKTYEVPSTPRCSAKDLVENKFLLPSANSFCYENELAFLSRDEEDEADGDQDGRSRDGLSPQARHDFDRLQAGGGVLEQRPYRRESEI
Nature of the assay: Thallium flux selectivity assay Kir2.2. Here is the method:
as §1

The subject of assay [4] is nine other members of the Kir channel family. The experiment in a line: Thallium assays, panel of nine other members of the Kir channel family. The settings on record: read-out: IC50 against panel of nine other Kir channel family members. The method, then: as §1

Some results are limits rather than exact numbers.

As usually defined, the IC50 is the concentration at which inhibition is half-maximal. For the compound `Cc1nc(-c2cccs2)sc1CNC(=O)Nc1cccs1` [VU0542270], the “inhibition of channels containing SUR1” value in assay [1] is recorded as “not channels containing SUR1”. The IC50 in assay [2], in assay [3] and in assay [4] was more than 30 µM in each case.
